Experimental data as given in PubChem BioAssay AID1918944 (Molecular Pharmacology Branch, DTP, NCI, 2023).
Where “and” joins values, the source holds several entries; their conditions need not be identical. Equal values may be shown once. Calls of active or inactive are those of the source. The calls were made as follows: active = viability on the fitted dose curve at most 10% of control; inactive = the rest.

Tested on: 786-0 complex spheroid viability
Test: Anticancer human tumor 786-0 cell line growth inhibition;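 also: spheroids exposed to agents for seven days before readout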
Conditions: for viability, T/C: stronger effect = lower value
Method in brief: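 Multicellular complex spheroids of tumor cells with human endothelial cells (HUVEC) and mesenchymal stem cells; the LSD1 inhibitor iadademstat was combined with standard-of-care or investigational agents. Top concentration at or near clinical Cmax, half-log dilutions; final DMSO ≤0.25%.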

[1] = curve of first compound, second compound 0.1 µM
[2] = curve of first compound, second compound 0.316 µM
[3] = curve of first compound, second compound 1 µM
[4] = curve of first compound, second compound 3.16 µM
[5] = curve of first compound, second compound 10 µM
[6] = second compound 0.1 µM, first compound 0.0316 µM
[7] = second compound 0.1 µM, first compound 0.1 µM
[8] = second compound 0.1 µM, first compound 0.316 µM
[9] = second compound 0.1 µM, first compound 1 µM
[10] = second compound 0.1 µM, first compound 3.16 µM
[11] = second compound 0.1 µM, first compound 10 µM
[12] = second compound 0.316 µM, first compound 0.0316 µM
[13] = second compound 0.316 µM, first compound 0.1 µM
[14] = second compound 0.316 µM, first compound 0.316 µM
[15] = second compound 0.316 µM, first compound 1 µM
[16] = second compound 0.316 µM, first compound 3.16 µM
[17] = second compound 0.316 µM, first compound 10 µM
[18] = second compound 1 µM, first compound 0.0316 µM
[19] = second compound 1 µM, first compound 0.1 µM
[20] = second compound 1 µM, first compound 0.316 µM
[21] = second compound 1 µM, first compound 1 µM
[22] = second compound 1 µM, first compound 3.16 µM
[23] = second compound 1 µM, first compound 10 µM
[24] = second compound 3.16 µM, first compound 0.0316 µM
[25] = second compound 3.16 µM, first compound 0.1 µM
[26] = second compound 3.16 µM, first compound 0.316 µM
[27] = second compound 3.16 µM, first compound 1 µM
[28] = second compound 3.16 µM, first compound 3.16 µM
[29] = second compound 3.16 µM, first compound 10 µM
[30] = second compound 10 µM, first compound 0.0316 µM
[31] = second compound 10 µM, first compound 0.1 µM
[32] = second compound 10 µM, first compound 0.316 µM
[33] = second compound 10 µM, first compound 1 µM
[34] = second compound 10 µM, first compound 3.16 µM
[35] = second compound 10 µM, first compound 10 µM
[36] = second compound 0.1 µM, first compound 0.00949 µM
[37] = second compound 0.1 µM, first compound 0.03 µM
[38] = second compound 0.1 µM, first compound 0.0949 µM
[39] = second compound 0.1 µM, first compound 0.3 µM
[40] = second compound 0.316 µM, first compound 0.00949 µM
[41] = second compound 0.316 µM, first compound 0.03 µM
[42] = second compound 0.316 µM, first compound 0.0949 µM
[43] = second compound 0.316 µM, first compound 0.3 µM
[44] = second compound 1 µM, first compound 0.00949 µM
[45] = second compound 1 µM, first compound 0.03 µM
[46] = second compound 1 µM, first compound 0.0949 µM
[47] = second compound 1 µM, first compound 0.3 µM
[48] = second compound 3.16 µM, first compound 0.00949 µM
[49] = second compound 3.16 µM, first compound 0.03 µM
[50] = second compound 3.16 µM, first compound 0.0949 µM
[51] = second compound 3.16 µM, first compound 0.3 µM
[52] = second compound 10 µM, first compound 0.00949 µM
[53] = second compound 10 µM, first compound 0.03 µM
[54] = second compound 10 µM, first compound 0.0949 µM
[55] = second compound 10 µM, first compound 0.3 µM

CC1COCCN1c1cc(C2(S(C)(=N)=O)CC2)nc(-c2ccnc3[nH]ccc23)n1 (centres undefined) + NC1CC1c1ccc(-c2cccc(O)c2)cc1
inactive: viability, T/C [6] 99.5% | viability, T/C [7] 107% | viability, T/C [8] 89.1% | viability, T/C [9] 47.4% | viability, T/C [10] 22.8% | viability, T/C [11] 14.4% | viability, T/C [12] 114% | viability, T/C [13] 110% | viability, T/C [14] 98.8% | viability, T/C [15] 49.7% | viability, T/C [16] 22.7% | viability, T/C [17] 14.8% | viability, T/C [18] 101% | viability, T/C [19] 102% | viability, T/C [20] 88% | viability, T/C [21] 46.4% | viability, T/C [22] 22.9% | viability, T/C [23] 12.8% | viability, T/C [24] 94.5% | viability, T/C [25] 101% | viability, T/C [26] 86% | viability, T/C [27] 41.8% | viability, T/C [28] 22.9% | viability, T/C [29] 14.6% | viability, T/C [30] 99% | viability, T/C [31] 95.2% | viability, T/C [32] 81.3% | viability, T/C [33] 38.1% | viability, T/C [34] 25.6% | viability, T/C [35] 13.4%
0.751 µM: IC50 [5]
0.819 µM: IC50 [4]
0.943 µM: IC50 [1]
1.02 µM: IC50 [2]
0.933 µM: IC50 [3]

NC1CCC(NC2CC2c2ccccc2)CC1 (centres undefined)
> 10 µM: IC50 (compound alone, run of 11/29/2021)
inactive: viability, T/C (compound 0.1 µM) 114% [middle of 25 runs] | viability, T/C (compound 0.316 µM) 113% and 132% | viability, T/C (compound 1 µM) 112% [middle of 25 runs] | viability, T/C (compound 3.16 µM) 106% [middle of 25 runs] | viability, T/C (compound 10 µM) 85.4% [middle of 23 runs]

CC1(C)CCC(CN2CCN(c3ccc(C(=O)NS(=O)(=O)c4ccc(NCC5CCOCC5)c([N+](=O)[O-])c4)c(Oc4cnc5[nH]ccc5c4)c3)CC2)=C(c2ccc(Cl)cc2)C1 + NC1CCC(NC2CC2c2ccccc2)CC1
9.29 µM: IC50 [4]
6.26 µM: IC50 [5]
> 10 µM: IC50 [1] | IC50 [2] | IC50 [3]
inactive: viability, T/C [6] 113% | viability, T/C [7] 117% | viability, T/C [8] 110% | viability, T/C [9] 116% | viability, T/C [10] 103% | viability, T/C [11] 68.1% | viability, T/C [12] 117% | viability, T/C [13] 121% | viability, T/C [14] 120% | viability, T/C [15] 120% | viability, T/C [16] 106% | viability, T/C [17] 67.1% | viability, T/C [18] 116% | viability, T/C [19] 116% | viability, T/C [20] 118% | viability, T/C [21] 108% | viability, T/C [22] 104% | viability, T/C [23] 58.3% | viability, T/C [24] 110% | viability, T/C [25] 109% | viability, T/C [26] 107% | viability, T/C [27] 96% | viability, T/C [28] 85.3% | viability, T/C [29] 47.4% | viability, T/C [30] 90.2% | viability, T/C [31] 94.6% | viability, T/C [32] 89.3% | viability, T/C [33] 74.1% | viability, T/C [34] 63.2% | viability, T/C [35] 41.8%

Nc1ccn(C2OC(CO)C(O)C2(F)F)c(=O)n1 (centres undefined)
< 0.000949 µM: IC50 (curve of compound)
inactive: viability, T/C (compound 0.000949 µM) 10.4% and 19.8%
active: viability, T/C (compound 0.003 µM) 4.3% and 7% | outcome (compound 0.00949 µM) | viability, T/C (compound 0.00949 µM) 4.25% | viability, T/C (compound 0.03 µM) 4.55% and 6.65% | viability, T/C (compound 0.0949 µM) 4.92% and 6.2% | viability, T/C (compound 0.3 µM) 6.14% and 6.43%

CCc1c2c(nc3ccc(O)cc13)-c1cc3c(c(=O)n1C2)COC(=O)[C@]3(O)CC + NC1CCC(NC2CC2c2ccccc2)CC1
< 0.000949 µM: IC50 [1] | IC50 [2] | IC50 [3] | IC50 [4] | IC50 [5]
active: viability, T/C (second compound 0.1 µM, first compound 0.000949 µM) 5.59% | viability, T/C (second compound 0.1 µM, first compound 0.003 µM) 3.78% | viability, T/C [36] 4.66% | viability, T/C [37] 5.87% | viability, T/C [38] 7.32% | viability, T/C [39] 5.08% | viability, T/C (second compound 0.316 µM, first compound 0.000949 µM) 4.71% | viability, T/C (second compound 0.316 µM, first compound 0.003 µM) 5.02% | viability, T/C [40] 5.44% | viability, T/C [41] 5.35% | viability, T/C [42] 6.11% | viability, T/C [43] 6.29% | viability, T/C (second compound 1 µM, first compound 0.000949 µM) 4.87% | viability, T/C (second compound 1 µM, first compound 0.003 µM) 4.67% | viability, T/C [44] 4.31% | viability, T/C [45] 6.32% | viability, T/C [46] 7.36% | viability, T/C [47] 5.93% | viability, T/C (second compound 3.16 µM, first compound 0.000949 µM) 4.72% | viability, T/C (second compound 3.16 µM, first compound 0.003 µM) 4.8% | viability, T/C [48] 5.76% | viability, T/C [49] 6.79% | viability, T/C [50] 7.9% | viability, T/C [51] 6.54% | viability, T/C (second compound 10 µM, first compound 0.000949 µM) 3.83% | viability, T/C (second compound 10 µM, first compound 0.003 µM) 4.29% | viability, T/C [52] 6.51% | viability, T/C [53] 9.43% | viability, T/C [54] 10.1% | viability, T/C [55] 7.07%

CCN(c1cc(-c2ccc(CN3CCOCC3)cc2)cc(C(=O)NCc2c(C)cc(C)[nH]c2=O)c1C)C1CCOCC1 + NC1CC1c1ccc(-c2cccc(O)c2)cc1
> 3 µM: IC50 [1] | IC50 [2] | IC50 [3] | IC50 [4] | IC50 [5]
inactive: viability, T/C [36] 99.5% | viability, T/C [37] 101% | viability, T/C [38] 98.7% | viability, T/C [39] 94.3% | viability, T/C (second compound 0.1 µM, first compound 0.949 µM) 95.7% | viability, T/C (second compound 0.1 µM, first compound 3 µM) 96.2% | viability, T/C [40] 104% | viability, T/C [41] 105% | viability, T/C [42] 107% | viability, T/C [43] 103% | viability, T/C (second compound 0.316 µM, first compound 0.949 µM) 97.6% | viability, T/C (second compound 0.316 µM, first compound 3 µM) 94.8% | viability, T/C [44] 98.8% | viability, T/C [45] 101% | viability, T/C [46] 99.3% | viability, T/C [47] 102% | viability, T/C (second compound 1 µM, first compound 0.949 µM) 84.8% | viability, T/C (second compound 1 µM, first compound 3 µM) 86% | viability, T/C [48] 88.6% | viability, T/C [49] 97.7% | viability, T/C [50] 95.3% | viability, T/C [51] 96.8% | viability, T/C (second compound 3.16 µM, first compound 0.949 µM) 84.4% | viability, T/C (second compound 3.16 µM, first compound 3 µM) 86.3% | viability, T/C [52] 87.8% | viability, T/C [53] 87% | viability, T/C [54] 85.5% | viability, T/C [55] 87.3% | viability, T/C (second compound 10 µM, first compound 0.949 µM) 80.4% | viability, T/C (second compound 10 µM, first compound 3 µM) 83%

CC(C)c1c(-c2ccccc2)nc2c(C#N)c[nH]n2c1=O + NC1CCC(NC2CC2c2ccccc2)CC1
> 10 µM: IC50 [1] | IC50 [2] | IC50 [3] | IC50 [4] | IC50 [5]
inactive: viability, T/C [6] 110% | viability, T/C [7] 111% | viability, T/C [8] 119% | viability, T/C [9] 118% | viability, T/C [10] 116% | viability, T/C [11] 112% | viability, T/C [12] 121% | viability, T/C [13] 118% | viability, T/C [14] 118% | viability, T/C [15] 116% | viability, T/C [16] 115% | viability, T/C [17] 116% | viability, T/C [18] 114% | viability, T/C [19] 113% | viability, T/C [20] 113% | viability, T/C [21] 125% | viability, T/C [22] 112% | viability, T/C [23] 113% | viability, T/C [24] 111% | viability, T/C [25] 107% | viability, T/C [26] 108% | viability, T/C [27] 100% | viability, T/C [28] 107% | viability, T/C [29] 103% | viability, T/C [30] 92.7% | viability, T/C [31] 95.3% | viability, T/C [32] 95.2% | viability, T/C [33] 98.8% | viability, T/C [34] 88.1% | viability, T/C [35] 84.9%
